Results taken from US10349662B2, “Insecticidal compositions and methods of using the same” (priority 2011, dated 2019).
Where “and” joins values, the source holds several entries; their conditions need not be identical. Equal values may be shown once. Read-outs that look alike come from different tables or passages of the source.

System: Aedes aegypti mosquitoes
Assay: Topical bioassay on adult female Aedes aegypti mosquitoes (knockdown 1 h, mortality 24 h; Colby calculation for combinations)
Assay type: in vivo
Description: Components of a composition can have a synergistic or additive effect on insecticidal activity. Components have an additive effect when the effect of the combination is equal to the sum of the effects of each individual component. In contrast, components have a synergistic effect when the effect of the combination exceeds the sum of the effects of the components when applied individually. The effect (E) of a combination of two compounds may be calculated using the Colby formula (1) (S. R. Colby, “Calculating Synergistic and Antagonistic Responses of Herbicide Combinations”, Weeds 1967, 15, 20-22):
If the actual insecticidal kill rate is the calculated value (E), then the action of the combination is additive. If the actual insecticidal kill rate exceeds the calculated value (E), then the action of the combination is super-additive, that is, a synergistic effect is present. If the insecticidal kill rate is lower than the calculated value (E), then the action of the combination is considered antagonistic.
Adult female Aedes aegypti mosquitoes were segregated in 18″×18″ screen cages based on date of eclosion, therefore the exact age of the mosquitoes were known for bioassays.
Ten female mosquitoes, aged four to six days after eclosion, were aspirated out of their respective cage and into a small glass jar. The mosquitoes were then anesthetized with CO2 gas for 30 seconds. After the adults were anesthetized, they were quickly placed on a plastic platform for treatment application. Treatments were serially diluted (using a BrandTech Scientific Transferpette S pipette (100-1000 μL), labeled centrifuge tubes, and a vortex mixer) from stocks of insecticides using reagent grade acetone as the diluent to concentrations as indicated for each treatment solution. A treatment solution may contain additional ingredients as indicated for each study.
Using a Hamilton PB00-1 Repeating Dispenser with a Hamilton 25 Microliter Syringe, 0.5 μL of each treatment solution was applied to the thorax of each mosquito. Immediately following the application of the treatment, the mosquitoes were gently transferred into a clean paper cup and covered with screen. The mesh screen prevented the mosquitoes from escaping and allowed the specimens to be viewed for ratings. A cotton ball soaked with 10% sucrose solution was inserted into a side hole of each cup for hydration and nourishment. Each treatment variable in the study was replicated three times using separate cups for each replication.
The untreated controls treatments were anesthetized for 30 seconds and gently transferred to the paper cups. The acetone treated control was treated exactly as described above except that the solution applied to each mosquito was undiluted acetone.
The condition of the mosquitoes in each cup was recorded at one hour and 24 hours after initial treatment. The condition classifications used were (1) alive and flying, (2) alive and unable to fly, or (3) dead. The percent mortality for each treatment was calculated by summing the mortalities of each replicate then calculating the percent dead from the total number of mosquitoes.
Where indicated, the mortality data were subjected to probit analysis using the Statistical Analysis System Version 9.1 program PROC PROBIT (SAS Institute (2003) PROC user's manual, version 9.1. SAS Institute, Cary, N.C.).

[1] = active ingredient alone, 3%, adult, virgin, female Aedes aegypti

CC[S+]([O-])c1c(C#N)nn(-c2c(Cl)cc(C(F)(F)F)cc2Cl)c1N (centres unmarked) [ethiprole, reference compound]
1 hour knockdown (0.0005 μg/mosquito): 0%
mortality at 0.0005 µg/mosquito (Aedes aegypti, topical, 24 h, read-out: % MORTALITY AFTER 24 HRS, 0.0005 μg/mosquito): 97%

C=C(C)[C@@H]1CC=C(C)C(=O)C1 [(R)-(−)-Carvone]
% MORTALITY AFTER 24 HRS (3%): 7%
% MORTALITY AFTER 24 HRS (single active, 3%): 13% and 10%

CC1CC=CCC1 (centres unmarked) [4-Methylcyclohexene]
mortality at 3 % (Aedes aegypti, topical, 24 h, read-out: % MORTALITY AFTER 24 HRS, active ingredient alone, 3%, adult, virgin, female Aedes aegypti): 0%

C=CC(C)=CCC=C(C)CCC=C(C)C [Farnesene]
1 hour knockdown (1%): 0%
% MORTALITY AFTER 24 HRS (1%): 3%
1 hour knockdown (3%): 3% and 0% and 7%
% MORTALITY AFTER 24 HRS (3%): 3%
1 hour knockdown (5%): 0%
% MORTALITY AFTER 24 HRS (5%): 13%
1 hour knockdown (10%): 87%
% MORTALITY AFTER 24 HRS (10%): 70%
1 hour knockdown (20%): 100%
% MORTALITY AFTER 24 HRS (20%): 100%
% MORTALITY AFTER 24 HRS (single active, 3%): 7%

CN/C(=N\[N+](=O)[O-])NCc1cnc(Cl)s1 [Clothianidin, clothianidin, reference compound]
mortality at 5 ng (Aedes aegypti, topical, 24 h, read-out: % MORTALITY AFTER 24 HRS, 0.005 μg): 7%
mortality at 10 ng (Aedes aegypti, topical, 24 h, read-out: % MORTALITY AFTER 24 HRS, 0.01 μg): 50%
mortality at 25 ng (Aedes aegypti, topical, 24 h, read-out: % MORTALITY AFTER 24 HRS, 0.025 μg): 40%
mortality at 10 ng (Aedes aegypti, topical, 24 h, read-out: % MORTALITY AFTER 24 HRS, single active, 0.01 μg): 47%
mortality at 15 ng (Aedes aegypti, topical, 24 h, read-out: % MORTALITY AFTER 24 HRS, single active, 0.015 μg): 0%
mortality at 20 ng (Aedes aegypti, topical, 24 h, read-out: % MORTALITY AFTER 24 HRS, single active, 0.02 μg): 43%

C=C(C)[C@H]1CC=C(C)C(=O)C1 [(S)-(−)-Carvone]
% MORTALITY AFTER 24 HRS (3%): 20%

C=C(C)[C@H]1CC=C(C)CC1 [Limonene]
% MORTALITY AFTER 24 HRS (5%): 27%

CC1=CC(=O)CC(C)C1 (centres unmarked) [3,5-Dimethyl . . .]
% MORTALITY AFTER 24 HRS [1]: 63%

CC1=CC(=O)CC(C)C1 (centres unmarked) [3.5-Dimethyl . . .]
% MORTALITY AFTER 24 HRS [1]: 30%

CC/C=C\C/C=C\C/C=C\CCCCCCCC(=O)O [Linolenic acid]
1 hour knockdown (1%): 0%
1 hour knockdown (5%): 27%
1 hour knockdown (10%): 40%
1 hour knockdown (20%): 93%
mortality at 1 % (Aedes aegypti, topical, 24 h, read-out: % MORTALITY AFTER 24 HRS, 1%): 3%
mortality at 5 % (Aedes aegypti, topical, 24 h, read-out: % MORTALITY AFTER 24 HRS, 5%): 33%
mortality at 10 % (Aedes aegypti, topical, 24 h, read-out: % MORTALITY AFTER 24 HRS, 10%): 83%
mortality at 20 % (Aedes aegypti, topical, 24 h, read-out: % MORTALITY AFTER 24 HRS, 20%): 93%
mortality at 3 % (Aedes aegypti, topical, 24 h, read-out: % MORTALITY AFTER 24 HRS, single active, 3%): 10%

CC(C)(C)C1=CCCCC1 [1-tert-Butyl . . .]
% MORTALITY AFTER 24 HRS [1]: 30%

CC1(C)C2CC=C(C=O)C1C2 [(1R)-(−)-Myrtenal]
% MORTALITY AFTER 24 HRS (2%): 10%

C#CCC1=C(C)C(OC(=O)C2C(C=C(C)C)C2(C)C)CC1=O (centres unmarked) [Prallethrin, prallethrin, reference compound]
mortality at 750 pg (Aedes aegypti, topical, 24 h, read-out: % MORTALITY AFTER 24 HRS, 0.00075 μg): 37%
mortality at 300 pg (Aedes aegypti, topical, 24 h, read-out: % MORTALITY AFTER 24 HRS, insecticide alone, 0.0003 μg, adult, virgin, female Aedes aegypti): 7%
mortality at 400 pg (Aedes aegypti, topical, 24 h, read-out: % MORTALITY AFTER 24 HRS, insecticide alone, 0.0004 μg, adult, virgin, female Aedes aegypti): 40%
mortality at 750 pg (Aedes aegypti, topical, 24 h, read-out: % MORTALITY AFTER 24 HRS, single active, 0.00075 μg): 20%

C=C(C)[C@@H]1CC=C(C=O)CC1 [(S)-(−)-Perillaldehyde]
1 hour knockdown (1%): 3%
% MORTALITY AFTER 24 HRS (1%): 7%
% MORTALITY AFTER 24 HRS (2%): 30%
1 hour knockdown (5%): 93%
% MORTALITY AFTER 24 HRS (5%): 93%
1 hour knockdown (10%): 100%
% MORTALITY AFTER 24 HRS (10%): 100%
1 hour knockdown (20%): 97%
% MORTALITY AFTER 24 HRS (20%): 100%
